Experimental data taken from ChEMBL document CHEMBL6134898, “In Vitro ADME Profiling of PROTACs: Successes, Challenges, and Lessons Learned from Analysis of Clinical PROTACs from a Diverse Physicochemical Space” (J Med Chem, 2025).
≈ marks a conversion by molar mass, not a printed value.

How the values were obtained:
[1] = Protein binding in human plasma assessed as free fraction at 5 uM incubated for 18 hrs by LC-MS/MS analysis; assay type: ADME, cell-free
[2] = Blood to plasma partitioning ratio in human at 10 uM incubated for 30 mins by LC-MS/MS analysis; assay type: ADME, cell-free; conditions: whole blood
[3] = Stability in human plasma at 5 uM incubated for 18 hrs by LC-MS/MS analysis; assay type: ADME, cell-free; conditions: read-out: Stability
[4] = Intrinsic clearance in human hepatocytes measured per million cells at 1 uM measured for 0.5 to 120 mins by LC-MS/MS analysis; assay type: ADME, cell-based, Hepatocyte; conditions: time 0.5-120 min, read-out: CLH
[5] = Intrinsic clearance in mouse hepatocytes measured per million cells at 1 uM measured for 0.5 to 120 mins by LC-MS/MS analysis; assay type: ADME, cell-based, Hepatocyte; conditions: time 0.5-120 min, read-out: CLH
[6] = Protein binding in mouse plasma assessed as free fraction at 5 uM incubated for 18 hrs by LC-MS/MS analysis; assay type: ADME, cell-free
[7] = Intrinsic clearance in rat hepatocytes measured per million cells at 1 uM measured for 0.5 to 120 mins by LC-MS/MS analysis; assay type: ADME, cell-based, Hepatocyte; conditions: time 0.5-120 min, read-out: CLH
[8] = Intrinsic clearance in dog hepatocytes measured per million cells at 1 uM measured for 0.5 to 120 mins by LC-MS/MS analysis; assay type: ADME, cell-based, Canis lupus familiaris, Hepatocyte; conditions: time 0.5-120 min, read-out: CLH
[9] = Blood to plasma partitioning ratio in rat at 10 uM incubated for 30 mins by LC-MS/MS analysis; assay type: ADME, cell-free; conditions: whole blood
[10] = Blood to plasma partitioning ratio in dog at 10 uM incubated for 30 mins by LC-MS/MS analysis; assay type: ADME, cell-free, Canis lupus familiaris; conditions: whole blood
[11] = Protein binding in rat plasma assessed as free fraction at 5 uM incubated for 18 hrs by LC-MS/MS analysis; assay type: ADME, cell-free
[12] = Intrinsic clearance in monkey hepatocytes measured per million cells at 1 uM measured for 0.5 to 120 mins by LC-MS/MS analysis; assay type: ADME, cell-based, Macaca mulatta, Hepatocyte; conditions: rhesus monkey, time 0.5-120 min, read-out: CLH
[13] = Apparent permeability across apical to basal side in human Caco-2 cells at 1 uM incubated for 120 mins by LC-MS/MS analysis; assay type: ADME, cell-based
[14] = Protein binding in monkey plasma assessed as free fraction at 5 uM incubated for 18 hrs by LC-MS/MS analysis; assay type: ADME, cell-free, Macaca mulatta; conditions: rhesus monkey
[15] = Protein binding in dog plasma assessed as free fraction at 5 uM incubated for 18 hrs by LC-MS/MS analysis; assay type: ADME, cell-free, Canis lupus familiaris
[16] = Lipophilicity, LogD of compound by Chromatography; assay type: physicochemical
[17] = Protein binding in rat hepatocytes assessed as free fraction at 5 uM incubated for 18 hrs by LC-MS/MS analysis; assay type: ADME, cell-based, Hepatocyte
[18] = Protein binding in human plasma assessed as compound recovery at 5 uM incubated for 18 hrs by LC-MS/MS analysis; assay type: ADME, cell-free; conditions: read-out: Drug recovery
[19] = Apparent permeability across apical to basal side in human Caco-2 cells at 1 uM incubated for 120 mins followed by ACN addition by LC-MS/MS analysis; assay type: ADME, cell-based
[20] = Solubility of compound in SGF at pH 1.2 measured after 24 hrs by UPLC analysis; assay type: physicochemical
[21] = Solubility of compound in FaSSIF at pH 6.5 measured after 24 hrs by UPLC analysis; assay type: physicochemical
[22] = Solubility of compound in FeSSIF at pH 5 measured after 24 hrs by UPLC analysis; assay type: physicochemical

Structure (SMILES)	fraction unbound at 18 h, 5 µM [1]	blood plasma ratio at 0.5 h, 10 µM [2]	remaining at 18 h, 5 µM [3] [%]	hepatocyte CLint at 1 µM [4] [µL/min/1e6 cells]	hepatocyte CLint at 1 µM [5] [µL/min/1e6 cells]	fraction unbound at 18 h, 5 µM [6]	hepatocyte CLint at 1 µM [7] [µL/min/1e6 cells]	hepatocyte CLint at 1 µM [8] [µL/min/1e6 cells]	blood plasma ratio at 0.5 h, 10 µM [9]	blood plasma ratio at 0.5 h, 10 µM [10]	fraction unbound at 18 h, 5 µM [11]	hepatocyte CLint at 1 µM [12] [µL/min/1e6 cells]	Papp A→B at 2 h, 1 µM [13] [×10⁻⁶ cm/s]	fraction unbound at 18 h, 5 µM [14]	fraction unbound at 18 h, 5 µM [15]	chromatographic logD [16]	fraction unbound at 18 h, 5 µM [17]	recovery at 18 h, 5 µM [18] [%]	Papp A→B at 2 h, 1 µM [19] [×10⁻⁶ cm/s]	solubility at 24 h [20] [µg/mL]	other results
COc1cc(-c2cn(C)c(=O)c3cnc(N4CCC4)cc23)cc(OC)c1CN1CCC(CN2CCC3(CC2)CN(c2ccc4c(c2)C(=O)N([C@H]2CCC(=O)NC2=O)C4)C3)CC1	0.29	2.7	84	< 1	5	0.232	< 1	5	1.3	2.4	0.265	3	< 0.1	0.427	0.41	1.9	0.35	65	0.1	–	–
NC(=O)c1ncc(N2CCCCC2)nc1Nc1ccc(C2CCN(C[C@@H]3CCN(c4ccc5c(c4)C(=O)N(C4CCC(=O)NC4=O)C5=O)C3)CC2)cc1 (some centres undefined)	< 0.004	0.8	78	< 1	8	< 0.001	5	4	0.6	0.5	0.001	6	< 0.1	< 0.002	< 0.001	5.1	0.003	90	< 0.1	–	–
Cn1c(=O)n([C@H]2CCC(=O)NC2=O)c2cccc(C#CCOC3CCN(C[C@H]4CC[C@H](n5cc(NC(=O)c6cnn7ccc(N8C[C@H]9C[C@@H]8CO9)nc67)c(C(F)F)n5)CC4)CC3)c21	0.022	–	68	3	11	0.008	11	4	–	–	–	10	2.4	0.035	0.026	2.4	0.069	56	5.3	4.1 (≈ 4.73 µM)	solubility at 24 h [21]: 1.6 µg/mL (≈ 1.85 µM); solubility at 24 h [22]: 33 µg/mL (≈ 38.1 µM)
CNC(=O)COc1cc2cc(Nc3nc(N4CCC(O[C@H]5C[C@H](N6CCC(c7ccc8c(c7F)CN(C7CCC(=O)NC7=O)C8=O)CC6)C5)CC4)ncc3Cl)ccc2n(C(C)C)c1=O (some centres undefined)	< 0.007	0.8	7	3	5	0.005	5	8	1.1	0.7	0.014	10	< 0.3	0.007	0.002	3.7	0.016	43	1.2	–	–
N#Cc1ccc(O[C@H]2CC[C@H](NC(=O)c3ccc(N4CCC(CN5CCN(c6cc7c(cc6F)C(=O)N([C@H]6CCC(=O)NC6=O)C7=O)CC5)CC4)nn3)CC2)cc1Cl	< 0.001	0.7	1	2	3	< 0.001	< 1	< 1	0.7	0.6	–	5	< 0.1	–	–	5.1	0.008	14	0.1	230 (≈ 283 µM)	solubility at 24 h [21]: 1.6 µg/mL (≈ 1.97 µM); solubility at 24 h [22]: 192 µg/mL (≈ 236 µM)
CCc1cc(N2C(=S)N(c3ccc(C#N)c(C(F)(F)F)c3)C(=O)C2(C)C)ccc1OCCN1CCN(CC(=O)Nc2cccc(NC3CCC(=O)NC3=O)c2)[C@H](C)C1 (some centres undefined)	< 0.001	0.6	72	3	10	–	11	≤ 1	0.7	0.6	0.003	5	< 0.3	0.003	< 0.001	5.2	< 0.001	82	1.2	16 (≈ 19.5 µM)	solubility at 24 h [21]: 0.3 µg/mL (≈ 0.366 µM); solubility at 24 h [22]: 293 µg/mL (≈ 358 µM)
Cc1ncsc1-c1ccc([C@H](C)NC(=O)[C@@H]2C[C@@H](O)CN2C(=O)[C@@H](NC(=O)CCCCCC(=O)N2CCN(CC[C@H](CSc3ccccc3)Nc3ccc(S(=O)(=O)NC(=O)c4ccc(N5CCN(CC6=C(c7ccc(Cl)cc7)CCC(C)(C)C6)CC5)cc4)cc3S(=O)(=O)C(F)(F)F)CC2)C(C)(C)C)cc1 [DT-2216]	< 0.003	0.9	92	3	< 1	–	3	< 1	0.7	0.8	–	≤ 1	–	–	–	7.3	< 0.001	91	–	–	–
COc1cc(O[C@H]2C(C)(C)[C@H](NC(=O)c3ccc(N4CCC(CN5CCN(c6ccc(C(=O)N[C@H]7CCC(=O)NC7=O)c(F)c6)CC5)CC4)cc3)C2(C)C)ccc1C#N [LUXDEGALUTAMIDE]	< 0.004	0.5	74	< 1	4	0.002	2	< 1	0.7	0.8	0.003	4	< 0.1	–	0.003	5.3	0.01	68	0.3	188 (≈ 233 µM)	solubility at 24 h [21]: 0.4 µg/mL (≈ 0.495 µM); solubility at 24 h [22]: 3.8 µg/mL (≈ 4.7 µM)
